Assay results: ChEMBL document CHEMBL1131383, “Syntheses and biological evaluation of indolocarbazoles, analogues of rebeccamycin, modified at the imide heterocycle” (J Med Chem, 1998)
pIC50: −log10 of the molar value. ≈ marks a conversion by molar mass, not a printed value.

What was measured:
B16 = assay: Antiproliferative activity measured against murine B16 melanoma cells; format: functional, cell-based; details: Mus musculus
Bacillus cereus [1] = assay: Antimicrobial activity is tested against Bacillus cereus; format: functional
CEM-SS [2] = assay: Inhibitory concentration is tested in HIV-1 Lai-infected CEM-SS cells; format: functional, cell-based; details: Homo sapiens
CEM-SS [3] = assay: Cytotoxic concentration is tested against CEM-SS cells; format: functional; details: Homo sapiens
P388 = assay: Antiproliferative activity measured against P388 Leukemia cells; format: functional, cell-based, Mus musculus
P388CPT5 = assay: Antiproliferative activity measured against P388CPT5 cells resistant to Topoisomerase I inhibitor Camptothecin; format: functional, cell-based; details: Mus musculus
Streptomyces chartreusis = assay: In Vitro growth inhibitory effect of compounds against Gram-Positive Bacteria Streptomyces chartreusis NRRL11407; format: functional
[4] = target: T1, DNA topoisomerase 1 (Homo sapiens) (UniProt P11387); assay: Inhibition of human Topoisomerase I
T1 sequence (whole entry): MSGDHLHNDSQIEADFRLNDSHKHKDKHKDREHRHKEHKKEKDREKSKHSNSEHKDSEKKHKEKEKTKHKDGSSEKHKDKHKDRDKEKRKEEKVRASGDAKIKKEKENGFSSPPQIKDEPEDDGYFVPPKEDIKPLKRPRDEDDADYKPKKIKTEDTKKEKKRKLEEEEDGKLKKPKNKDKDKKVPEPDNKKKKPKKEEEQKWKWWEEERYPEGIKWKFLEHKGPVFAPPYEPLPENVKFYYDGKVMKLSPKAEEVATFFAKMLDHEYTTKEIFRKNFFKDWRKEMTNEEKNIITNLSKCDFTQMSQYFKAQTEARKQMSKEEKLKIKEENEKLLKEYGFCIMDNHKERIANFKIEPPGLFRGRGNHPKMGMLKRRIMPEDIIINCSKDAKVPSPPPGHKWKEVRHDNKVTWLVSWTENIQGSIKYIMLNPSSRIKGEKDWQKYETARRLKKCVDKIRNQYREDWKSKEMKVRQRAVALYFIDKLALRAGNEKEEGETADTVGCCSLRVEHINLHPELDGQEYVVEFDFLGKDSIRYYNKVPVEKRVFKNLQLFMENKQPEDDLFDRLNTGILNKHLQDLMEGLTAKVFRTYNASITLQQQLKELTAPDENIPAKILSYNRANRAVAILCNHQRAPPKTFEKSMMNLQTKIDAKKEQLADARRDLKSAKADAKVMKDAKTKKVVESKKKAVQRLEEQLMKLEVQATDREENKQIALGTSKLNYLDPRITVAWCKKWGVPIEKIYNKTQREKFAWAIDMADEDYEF

Bacillus cereus [5] = assay: In Vitro growth inhibitory effect of compounds against Gram-Positive Bacteria Bacillus cereus ATCC 14579; format: functional
[6] = Selectivity was measured [Selectivity = (CC50/IC50) against HIV-1 infected CEM-SS cells]; format: functional
Protein kinase C (PKC) = assay: Inhibition of Protein kinase C; format: protein assay

Row | SMILES | pIC50 (B16) | MIC (Bacillus cereus [1]) [µM] | pIC50 (CEM-SS [2]) | CC50 (CEM-SS [3]) [µM] | pIC50 (P388; Mus musculus, P388) | pIC50 (P388CPT5) | Inhibition zone (Streptomyces chartreusis) [mm] | MIC [4] [nM] | Inhibition zone (Bacillus cereus [5]) [mm] | Selectivity index [6] | pIC50 (P388; p388) | IC50 (Protein kinase C (PKC)) [µM]
1 | CO[C@H]1[C@H](O)[C@@H](O)[C@H](n2c3ccccc3c3c4c(c5c6ccccc6[nH]c5c32)C(=O)OC4=O)O[C@@H]1CO | 4.76 | > 99 | < 5.70 | > 1.98 | 5.20 | < 4.70 | 7 | 1990 (≈ 1 µg/mL) |  |  |  | 
2 | CO[C@H]1[C@H](O)[C@@H](O)[C@H](n2c3c(Cl)cccc3c3c4c(c5c6cccc(Cl)c6[nH]c5c32)C(=O)NC4=O)O[C@@H]1CO [REBECCAMYCIN] |  | 10.9 (≈ 6.22 µg/mL) | 6.28 | 1.05 | 5.91 | 4.98 | 9 |  | 9 | 2 |  | 
3 | CO[C@H]1[C@H](O)[C@@H](O)[C@H](n2c3c(Cl)cccc3c3c4c(c5c6cccc(Cl)c6[nH]c5c32)C(=O)N(C)C4=O)O[C@@H]1CO (stereo in doubt; A) |  | > 85 | 5.30 | 8.06 |  | 6.22 |  |  |  | 1.6 | 6.21 | > 100
4 | CO[C@H]1[C@H](O)[C@@H](O)[C@H](n2c3ccccc3c3c4c(c5c6ccccc6[nH]c5c32)C(=O)N(C)C4)O[C@@H]1CO.CO[C@H]1[C@H](O)[C@@H](O)[C@H](n2c3ccccc3c3c4c(c5c6ccccc6[nH]c5c32)CN(C)C4=O)O[C@@H]1CO | 5.30 | 24 | 6.22 | 8.38 | 5.47 | < 4.70 | 9 | 19900 | 9 | 14 |  | 
5 | CO[C@H]1[C@H](O)[C@@H](O)[C@H](n2c3c(Cl)cccc3c3c4c(c5c6cccc(Cl)c6[nH]c5c32)C(=O)N(C)C4)O[C@@H]1CO.CO[C@H]1[C@H](O)[C@@H](O)[C@H](n2c3c(Cl)cccc3c3c4c(c5c6cccc(Cl)c6[nH]c5c32)CN(C)C4=O)O[C@@H]1CO | 6.32 | > 88 | 6.51 | 1.72 | 6.28 | 5.39 | 9 | 17600 |  | 5.5 |  | 
6 | CO[C@H]1[C@H](O)[C@@H](O)[C@H](n2c3ccccc3c3c4c(c5c6ccccc6[nH]c5c32)C(=O)NC4)O[C@@H]1CO.CO[C@H]1[C@H](O)[C@@H](O)[C@H](n2c3ccccc3c3c4c(c5c6ccccc6[nH]c5c32)CNC4=O)O[C@@H]1CO |  | 25 | 5.39 | 14.3 |  | 5.52 |  | 20 |  | 3.5 |  | 3.7
7 | CO[C@H]1[C@H](O)[C@@H](O)[C@H](n2c3ccccc3c3c4c(c5c6ccccc6n(C)c5c32)C(=O)OC4=O)O[C@@H]1CO | 4.51 | > 97 | < 5.01 | > 9.7 | < 4.72 |  | 7 | > 19000 |  |  |  | 
8 | CO[C@H]1[C@H](O)[C@@H](O)[C@H](n2c3ccc(Br)cc3c3c4c(c5c6cc(Br)ccc6[nH]c5c32)C(=O)OC4=O)O[C@@H]1CO | 4.89 | > 75 | 5.31 | 9.39 | 6.04 | 5.12 |  | 1520 (≈ 1 µg/mL) |  | 1.9 |  | 
9 | CO[C@H]1[C@H](O)[C@@H](O)[C@H](n2c3ccccc3c3c4c(c5c6ccccc6[nH]c5c32)C(=O)N(C)C4=O)O[C@@H]1CO |  | 1.55 (≈ 0.799 µg/mL) | 5.38 | 7.96 | 5.97 | 6.15 |  |  |  | 1.9 |  | > 100
10 | CO[C@H]1[C@H](OC=O)[C@@H](O)[C@H](n2c3ccccc3c3c4c(c5c6ccccc6[nH]c5c32)C(=O)OC4=O)O[C@@H]1CO |  | > 94 | < 5.03 | > 9.4 | < 4.72 |  | 12 | 5700 (≈ 3.02 µg/mL) | 8 |  |  | 
11 | CO[C@H]1[C@H](O)[C@@H](O)[C@H](n2c3c(Cl)cccc3c3c4c(c5c6cccc(Cl)c6[nH]c5c32)C(=O)NC4)O[C@@H]1CO.CO[C@H]1[C@H](O)[C@@H](O)[C@H](n2c3c(Cl)cccc3c3c4c(c5c6cccc(Cl)c6[nH]c5c32)CNC4=O)O[C@@H]1CO |  | 5.6 | 6.44 | 1.15 | < 3.90 | 5.52 |  | 1800 |  | 3.2 |  | 28.8
12 | CO[C@H]1[C@H](O)[C@@H](O)[C@H](n2c3ccccc3c3c4c(c5c6ccccc6n(C)c5c32)C(=O)N(C)C4=O)O[C@@H]1CO | 5.10 | 94 (≈ 49.8 µg/mL) | < 4.72 | > 19 | < 4.72 |  | 12 | > 19000 | 8 |  |  | 
13 | CO[C@H]1[C@H](O)[C@@H](O)[C@H](n2c3ccccc3c3c4c(c5c6ccccc6[nH]c5c32)C(=O)NC4=O)O[C@@H]1CO | 6.05 | > 100 | 6.80 | 0.9 | 6.16 | < 4.70 |  | 590 (≈ 0.296 µg/mL) | 7 | 5.6 |  | 
